Measured values taken from patent US20170130064A1, “NOVEL POLYSILOXANE-BASED FOULING-RELEASE COATS COMPRISING POLY(OXYALKYLENE)-MODIFIED ALCOHOLS” (HEMPEL A/S, priority 2014, published 2017).
Marks after values point to notes of the source that are not given here.

Assay: Surface tension above critical micelle concentration in water (pendant drop method)
Assay type: physicochemical
Conditions: 5 wt % of the compound in demineralized water, picture 5 seconds after drop
Method: The surface tension of a liquid/air interface can be determined by the “pendant drop method” as described in “Encyclopedia of Surface and Colloid Science” by Marcel Dekker, 2002.
Samples were prepared as 5 wt % of the compound in demineralized water mixed in a 50 mL PE bottle. At 5 wt % it is ensured that concentrations are well above the critical micelle concentration. The samples were left over-night on a shaking table to ensure saturation and/or mixing. The measurements by “pendant drop method” were performed with DataPhysics OCA-15 pus, Dynamic Contact Angle, using software SCA202 V 4.5.8. The needle was a Disposable needle SNP-D 165/137, and the volume drop was 15 microliters.
The picture from which the surface tension is calculated is taken 5 seconds after the drop is forced out of the syringe.

Row | Substance | Surface tension [mN/m]
1 | PEG-12 nonylphenol, branched | 32
2 | PEG-20 oleyl ether | 36
3 | PEG-20 sorbitan monostearate | 43
4 | PEG-6 stearate | 43
5 | PEG-12 stearate | 35

Assay: not given
Conditions: From supplier data sheet; cited from earlier work

Row | Substance | Surface tension
6 | PEG-11 branched C12-C14 secondary alcohol | 30* mN/m
7 | PEG-22 oleyl alcohol | 44* mN/m
8 | PEG-7 lauryl alcohol | 29* mN/m
9 | PEG-6 decyl alcohol | 26.6* mN/m
10 | PEG-8 branched C12-C14 secondary alcohol | 27* mN/m
